Tests used:
[1] = molecular target: High affinity nerve growth factor receptor (Homo sapiens, UniProt P04629); assay: Inhibition of TRKA (unknown origin)
[2] = molecular target: Vascular endothelial growth factor receptor 2 (Homo sapiens, UniProt P35968); assay: Inhibition of KDR (unknown origin)
CYP3A4 = CYP3A4 (Homo sapiens, UniProt P08684); assay: Induction of CYP3A4 in human hepatocytes assessed as fold induction at 1 uM using testosterone as substrate preincubated with replacement of fresh medium containing compound every 24 hrs for 72 hrs followed by substrate addition and measured after 1 hr by LC-MS/MS analysis relative to control; format: ADME, cell-based, Hepatocyte; settings: probe testosterone, time 73 hrs, read-out: FC
[3] = molecular target: Tyrosine-protein kinase Lck (Homo sapiens, UniProt P06239); assay: Inhibition of LCK (unknown origin)
NIH3T3 = assay: Antiproliferative activity against […] NIH3T3 cells expressing MPRIP-NTRK1 assessed as cell growth inhibition incubated for 4 to 7 days by CellTiter-Glo Luminescent Cell Viability Assay; format: functional, cell-based; settings: Mus musculus
[4] = molecular target: BDNF/NT-3 growth factors receptor (Homo sapiens, UniProt Q16620); assay: Inhibition of TRKB (unknown origin)
[5] = molecular target: NT-3 growth factor receptor (Homo sapiens, UniProt Q16288); assay: Inhibition of TRKC (unknown origin)
[6] = molecular target: Proto-oncogene tyrosine-protein kinase Src (Homo sapiens, UniProt P12931); assay: Inhibition of Src (unknown origin)
[7] = molecular target: ALK tyrosine kinase receptor (Homo sapiens, UniProt Q9UM73); assay: Inhibition of ALK (unknown origin)
[8] = molecular target: Epidermal growth factor receptor (Homo sapiens, UniProt P00533); assay: Inhibition of EGFR (unknown origin)
[9] = molecular target: Fibroblast growth factor receptor 2 (Homo sapiens, UniProt P21802); assay: Inhibition of FGFR2 (unknown origin)
[10] = molecular target: Receptor tyrosine-protein kinase erbB-2 (Homo sapiens, UniProt P04626); assay: Inhibition of HER2 (unknown origin)
Insulin receptor = Insulin receptor (Homo sapiens, UniProt P06213); assay: Inhibition of INSR (unknown origin)
[11] = molecular target: Tyrosine-protein kinase JAK2 (Homo sapiens, UniProt O60674); assay: Inhibition of JAK2 (unknown origin)
[12] = molecular target: Hepatocyte growth factor receptor (Homo sapiens, UniProt P08581); assay: Inhibition of MET (unknown origin)
[13] = molecular target: RAC-alpha serine/threonine-protein kinase (Homo sapiens, UniProt P31749); assay: Inhibition of AKT1 (unknown origin)
[14] = molecular target: Cyclin-dependent kinase 1 (Homo sapiens, UniProt P06493); assay: Inhibition of CDK1 (unknown origin)
[15] = molecular target: Serine/threonine-protein kinase Chk1 (Homo sapiens, UniProt O14757); assay: Inhibition of CHK1 (unknown origin)
[16] = molecular target: cAMP-dependent protein kinase (PKA) (Homo sapiens, UniProt P22694+P17612+P22612); assay: Inhibition of PKA (unknown origin); format: protein assay
[17] = molecular target: Protein kinase C alpha type (Homo sapiens, UniProt P17252); assay: Inhibition of PKCalpha (unknown origin)
[18] = molecular target: RAF proto-oncogene serine/threonine-protein kinase (Homo sapiens, UniProt P04049); assay: Inhibition of RAF1 (unknown origin)

CYP3A4, sequence (P08684 whole entry): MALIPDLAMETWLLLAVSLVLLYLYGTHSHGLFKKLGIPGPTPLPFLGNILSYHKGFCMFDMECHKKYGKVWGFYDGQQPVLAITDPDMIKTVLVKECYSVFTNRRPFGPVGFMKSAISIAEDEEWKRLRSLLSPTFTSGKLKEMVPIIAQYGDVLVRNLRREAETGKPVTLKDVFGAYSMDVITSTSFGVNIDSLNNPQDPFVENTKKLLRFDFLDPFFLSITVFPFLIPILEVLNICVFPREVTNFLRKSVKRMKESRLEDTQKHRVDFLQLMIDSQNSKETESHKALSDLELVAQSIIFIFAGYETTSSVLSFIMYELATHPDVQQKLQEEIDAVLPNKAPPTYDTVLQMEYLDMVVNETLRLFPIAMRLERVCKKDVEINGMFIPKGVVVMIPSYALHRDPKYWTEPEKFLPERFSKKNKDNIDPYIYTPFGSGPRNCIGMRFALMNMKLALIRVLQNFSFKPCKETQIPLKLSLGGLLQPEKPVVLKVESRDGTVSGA
High affinity nerve growth factor receptor, sequence (P04629 whole entry): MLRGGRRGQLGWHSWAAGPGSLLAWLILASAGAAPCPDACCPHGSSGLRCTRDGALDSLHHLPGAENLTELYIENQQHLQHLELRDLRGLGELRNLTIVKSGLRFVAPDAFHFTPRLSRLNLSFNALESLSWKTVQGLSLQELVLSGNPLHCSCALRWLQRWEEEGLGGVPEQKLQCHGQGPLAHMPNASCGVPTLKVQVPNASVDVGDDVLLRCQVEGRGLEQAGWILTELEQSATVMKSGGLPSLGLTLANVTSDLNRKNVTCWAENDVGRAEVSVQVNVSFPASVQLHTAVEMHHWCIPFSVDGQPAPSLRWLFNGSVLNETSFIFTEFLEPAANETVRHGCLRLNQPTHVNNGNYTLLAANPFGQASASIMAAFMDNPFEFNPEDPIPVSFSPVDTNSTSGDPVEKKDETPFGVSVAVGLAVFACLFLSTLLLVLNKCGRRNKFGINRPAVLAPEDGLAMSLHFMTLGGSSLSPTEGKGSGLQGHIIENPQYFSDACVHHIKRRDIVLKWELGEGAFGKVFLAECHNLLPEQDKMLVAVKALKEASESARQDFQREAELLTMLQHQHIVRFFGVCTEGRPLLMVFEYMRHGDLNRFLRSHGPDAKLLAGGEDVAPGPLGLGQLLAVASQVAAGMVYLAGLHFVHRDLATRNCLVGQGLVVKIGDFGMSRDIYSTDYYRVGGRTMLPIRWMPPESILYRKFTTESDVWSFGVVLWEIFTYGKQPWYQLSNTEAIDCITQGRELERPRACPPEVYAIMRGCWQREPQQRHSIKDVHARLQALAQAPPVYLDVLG
Vascular endothelial growth factor receptor 2, sequence (P35968 whole entry): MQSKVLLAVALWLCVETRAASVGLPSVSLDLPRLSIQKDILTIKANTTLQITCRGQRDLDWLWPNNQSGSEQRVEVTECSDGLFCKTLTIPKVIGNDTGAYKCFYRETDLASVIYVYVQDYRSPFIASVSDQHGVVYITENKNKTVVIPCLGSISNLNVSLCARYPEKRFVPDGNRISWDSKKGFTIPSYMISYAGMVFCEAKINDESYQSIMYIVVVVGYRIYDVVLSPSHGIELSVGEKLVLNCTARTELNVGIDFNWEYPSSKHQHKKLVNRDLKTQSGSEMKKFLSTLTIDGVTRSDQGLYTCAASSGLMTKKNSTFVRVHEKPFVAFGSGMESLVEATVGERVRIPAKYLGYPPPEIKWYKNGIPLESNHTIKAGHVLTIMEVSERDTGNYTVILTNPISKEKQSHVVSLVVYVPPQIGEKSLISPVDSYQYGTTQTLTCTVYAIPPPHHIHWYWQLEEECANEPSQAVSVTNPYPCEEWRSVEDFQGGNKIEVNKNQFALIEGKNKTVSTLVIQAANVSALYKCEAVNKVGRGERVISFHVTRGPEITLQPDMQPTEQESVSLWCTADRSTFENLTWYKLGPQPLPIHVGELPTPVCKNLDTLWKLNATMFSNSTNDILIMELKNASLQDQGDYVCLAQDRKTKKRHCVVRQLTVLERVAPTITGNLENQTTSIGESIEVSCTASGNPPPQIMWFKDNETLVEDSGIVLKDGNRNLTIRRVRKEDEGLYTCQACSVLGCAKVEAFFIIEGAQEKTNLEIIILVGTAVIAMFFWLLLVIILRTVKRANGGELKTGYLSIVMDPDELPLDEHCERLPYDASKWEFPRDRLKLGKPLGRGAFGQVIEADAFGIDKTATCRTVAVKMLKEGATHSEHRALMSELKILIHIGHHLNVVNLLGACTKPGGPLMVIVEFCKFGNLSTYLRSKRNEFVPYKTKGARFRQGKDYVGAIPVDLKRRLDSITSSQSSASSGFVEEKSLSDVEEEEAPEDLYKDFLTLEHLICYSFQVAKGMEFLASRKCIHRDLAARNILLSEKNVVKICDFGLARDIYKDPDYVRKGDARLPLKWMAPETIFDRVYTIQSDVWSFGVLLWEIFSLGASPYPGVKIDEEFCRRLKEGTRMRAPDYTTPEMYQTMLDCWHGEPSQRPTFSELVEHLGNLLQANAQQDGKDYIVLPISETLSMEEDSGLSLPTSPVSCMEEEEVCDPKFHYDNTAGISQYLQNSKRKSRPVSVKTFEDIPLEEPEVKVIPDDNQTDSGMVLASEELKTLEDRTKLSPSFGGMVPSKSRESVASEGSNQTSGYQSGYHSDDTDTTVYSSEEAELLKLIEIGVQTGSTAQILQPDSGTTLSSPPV
Tyrosine-protein kinase Lck, sequence (P06239 whole entry): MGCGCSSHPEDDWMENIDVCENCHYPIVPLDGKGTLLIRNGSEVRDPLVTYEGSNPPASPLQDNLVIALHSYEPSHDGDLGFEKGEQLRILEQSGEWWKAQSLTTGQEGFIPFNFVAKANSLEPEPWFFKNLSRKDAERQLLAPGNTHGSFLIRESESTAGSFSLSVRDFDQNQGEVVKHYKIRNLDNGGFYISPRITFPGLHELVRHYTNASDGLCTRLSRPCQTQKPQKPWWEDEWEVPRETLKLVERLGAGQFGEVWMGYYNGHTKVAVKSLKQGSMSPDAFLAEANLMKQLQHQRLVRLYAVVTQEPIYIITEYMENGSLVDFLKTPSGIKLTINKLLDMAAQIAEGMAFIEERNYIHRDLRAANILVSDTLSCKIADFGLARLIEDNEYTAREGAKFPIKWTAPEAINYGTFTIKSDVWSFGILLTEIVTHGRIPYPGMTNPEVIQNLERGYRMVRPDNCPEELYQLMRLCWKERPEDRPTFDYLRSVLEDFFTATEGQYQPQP
Hepatocyte growth factor receptor, sequence (P08581 whole entry): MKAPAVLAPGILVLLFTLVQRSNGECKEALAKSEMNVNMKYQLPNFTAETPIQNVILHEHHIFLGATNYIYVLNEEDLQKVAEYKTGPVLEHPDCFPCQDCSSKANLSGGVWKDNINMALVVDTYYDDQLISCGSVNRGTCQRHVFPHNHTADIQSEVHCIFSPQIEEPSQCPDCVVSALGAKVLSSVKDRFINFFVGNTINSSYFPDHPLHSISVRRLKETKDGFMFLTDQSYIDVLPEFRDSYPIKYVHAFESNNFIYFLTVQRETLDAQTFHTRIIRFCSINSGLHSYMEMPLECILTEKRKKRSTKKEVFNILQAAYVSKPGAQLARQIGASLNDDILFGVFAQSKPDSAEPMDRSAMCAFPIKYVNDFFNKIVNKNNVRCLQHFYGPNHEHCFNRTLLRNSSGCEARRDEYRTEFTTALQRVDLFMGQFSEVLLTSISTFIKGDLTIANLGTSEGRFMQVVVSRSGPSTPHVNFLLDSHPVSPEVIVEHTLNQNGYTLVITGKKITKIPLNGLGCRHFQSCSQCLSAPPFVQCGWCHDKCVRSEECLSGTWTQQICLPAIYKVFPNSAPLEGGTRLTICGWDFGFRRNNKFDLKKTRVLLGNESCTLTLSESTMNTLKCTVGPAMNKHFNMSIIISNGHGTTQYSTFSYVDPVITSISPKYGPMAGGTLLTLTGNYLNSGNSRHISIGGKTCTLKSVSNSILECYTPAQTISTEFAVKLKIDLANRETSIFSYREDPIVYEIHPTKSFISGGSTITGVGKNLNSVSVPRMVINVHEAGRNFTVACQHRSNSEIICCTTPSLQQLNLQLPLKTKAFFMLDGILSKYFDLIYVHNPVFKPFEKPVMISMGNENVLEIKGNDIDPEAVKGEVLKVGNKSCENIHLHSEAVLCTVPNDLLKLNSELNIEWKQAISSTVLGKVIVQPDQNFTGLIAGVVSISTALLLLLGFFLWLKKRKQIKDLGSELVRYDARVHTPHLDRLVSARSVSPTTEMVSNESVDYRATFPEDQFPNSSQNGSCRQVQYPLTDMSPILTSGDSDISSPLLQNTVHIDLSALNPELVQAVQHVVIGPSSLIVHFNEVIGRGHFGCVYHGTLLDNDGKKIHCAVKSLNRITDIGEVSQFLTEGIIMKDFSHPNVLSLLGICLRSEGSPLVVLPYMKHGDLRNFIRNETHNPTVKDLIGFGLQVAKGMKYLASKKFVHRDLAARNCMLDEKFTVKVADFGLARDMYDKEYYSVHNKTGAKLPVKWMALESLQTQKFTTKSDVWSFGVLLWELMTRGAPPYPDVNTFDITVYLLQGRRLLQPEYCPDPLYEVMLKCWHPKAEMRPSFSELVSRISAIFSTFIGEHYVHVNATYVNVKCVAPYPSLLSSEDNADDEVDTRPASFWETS
Serine/threonine-protein kinase Chk1, sequence (O14757 whole entry): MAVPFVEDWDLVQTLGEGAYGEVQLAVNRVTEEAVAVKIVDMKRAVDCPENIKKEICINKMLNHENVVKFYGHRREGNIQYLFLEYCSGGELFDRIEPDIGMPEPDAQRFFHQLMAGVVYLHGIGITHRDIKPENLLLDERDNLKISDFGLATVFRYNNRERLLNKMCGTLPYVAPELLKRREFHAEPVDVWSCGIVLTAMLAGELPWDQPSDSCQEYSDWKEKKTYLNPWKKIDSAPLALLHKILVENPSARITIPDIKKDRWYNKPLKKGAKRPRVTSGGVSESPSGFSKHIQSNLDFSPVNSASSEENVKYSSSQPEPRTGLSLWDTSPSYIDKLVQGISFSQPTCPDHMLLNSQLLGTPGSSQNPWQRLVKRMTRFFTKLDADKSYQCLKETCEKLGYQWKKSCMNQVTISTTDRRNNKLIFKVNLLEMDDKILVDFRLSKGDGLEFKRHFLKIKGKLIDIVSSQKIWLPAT

Compound | IC50 [1] [nM] | IC50 [2] [nM] | fold induction at 1 h, 1 µM (CYP3A4) | IC50 [3] [nM] | IC50 (NIH3T3) [nM] | other results
CC1(C)c2cc(N3CC4(COC4)C3)ccc2C(=O)c2c1oc1cc(C#Cc3cc(OCC4CC4)ccn3)ccc21 | 3 | 430 | 2.6 | 86 | 69 | 
CC1(C)c2cc(OCCN3CCCOCC3)ccc2C(=O)c2c1oc1cc(C#Cc3cc(OCC4CC4)ccn3)ccc21 | 2.8 | 960 | 6.1 | 96 | 80 | 
CCCc1cc(C(=O)NC(C)(C)C)cc(C#Cc2ccc3c4c(oc3c2)C(C)(C)c2cc(NS(C)(=O)=O)ccc2C4=O)n1 | 1.2 | > 1000 | 0.9 | 96 | 12 | 
CC1(C)c2cc(OCCN3CCOCC3)ccc2C(=O)c2c1oc1cc(C#Cc3cc(OCC4(CO)CC4)ccn3)ccc21 | 3.3 | 960 | 7.9 | 370 | 184 | 
CC1(C)c2cc(OCCN3C4CCC3COC4)ccc2C(=O)c2c1oc1cc(C#Cc3cc(OCC4CC4)ccn3)ccc21 | 18 | > 1000 | 6.7 | 170 | 180 | 
CC1(C)c2cc(OCCN3CCOCC3)ccc2C(=O)c2c1oc1cc(C#Cc3cc(C(=O)NC4CC4)ccn3)ccc21 | 1.3 | > 1000 | 12 | 180 | 30 | 
CC1(C)c2cc(OCCN3CCOCC3)ccc2C(=O)c2c1oc1cc(C#Cc3cc(OCC4CC4)ccn3)ccc21 | 4.5 | 757 | 6.5 |  |  | IC50 [4]: 8.1 nM; IC50 [5]: 6.9 nM; IC50 [6]: 2000 nM; IC50 [7]: 2800 nM; IC50 [8]: > 10000 nM; IC50 [9]: > 10000 nM; IC50 [10]: > 10000 nM; IC50 (Insulin receptor): > 10000 nM; IC50 [11]: > 10000 nM; IC50 [12]: > 10000 nM; IC50 [13]: > 10000 nM; IC50 [14]: > 10000 nM; IC50 [15]: > 10000 nM; IC50 [16]: > 10000 nM; IC50 [17]: > 10000 nM; IC50 [18]: > 10000 nM
CC1(C)NC(=O)N(CCOc2ccc3c(c2)C(C)(C)c2oc4cc(C#Cc5cc(OCC6CC6)ccn5)ccc4c2C3=O)C1=O | 13 | > 1000 | 1.9 | 140 | 150 | 
CC1(COc2ccnc(C#Cc3ccc4c5c(oc4c3)C(C)(C)c3cc(OCCN4CCOCC4)ccc3C5=O)c2)CC1 | 2 | 420 | 6.1 | 160 | 73 | 
CC(C)(C)NC(=O)c1cc(Cl)nc(C#Cc2ccc3c4c(oc3c2)C(C)(C)c2cc(NS(C)(=O)=O)ccc2C4=O)c1 | 2.2 | > 1000 | 3 | 180 | 48 | 
CC1(C)c2cc(N3CCOCC3)ccc2C(=O)c2c1oc1cc(C#Cc3cc(OCC4CC4)ccn3)ccc21 | 3.4 | 690 | 5.4 | 190 | 53 | 
COCCOc1ccnc(C#Cc2ccc3c4c(oc3c2)C(C)(C)c2cc(OCCN3CCOCC3)ccc2C4=O)c1 | 15 | > 1000 | 6.3 | 820 | 130 | 
Cc1c(C(=O)NC(C)(C)C)ccnc1C#Cc1ccc2c3c(oc2c1)C(C)(C)c1cc(NS(C)(=O)=O)ccc1C3=O | 3.8 | > 1000 | 4.1 | 300 | 45 | 

Continued by falling IC50 [1], values first:

IC50 [1] [nM] | IC50 [2] [nM] | fold induction at 1 h, 1 µM (CYP3A4) | IC50 [3] [nM] | Compound | IC50 (NIH3T3) [nM] | other results
160 |  |  |  | CC1(C)c2cc(OCCN3CCOCC3)ccc2C(=O)c2c1oc1cc(C#Cc3cncc(OCC4CC4)c3)ccc21 |  | 
4 | 500 | 1.4 | 22 | CC1(C)c2cc(OCCN3CC4(COC4)C3)ccc2C(=O)c2c1oc1cc(C#Cc3cc(OCC4CC4)ccn3)ccc21 | 46 | 
3.9 | > 1000 | 1.2 | 223 | CC1(C)c2cc(NS(C)(=O)=O)ccc2C(=O)c2c1oc1cc(C#Cc3cc(OCC4CC4)ccn3)ccc21 | 75 | 
3.8 | > 1000 | 2.6 | 760 | Cc1cnc(C#Cc2ccc3c4c(oc3c2)C(C)(C)c2cc(NS(C)(=O)=O)ccc2C4=O)cc1C(=O)NC(C)(C)C | 65 | 
3.3 | > 1000 | 6.3 | 330 | CC1(C)c2cc(OCCN3CCOCC3)ccc2C(=O)c2c1oc1cc(C#Cc3cc(OCC(F)(F)F)ccn3)ccc21 | 21 | 
2.8 | > 1000 | 11 | 58 | CC(C)(C)NC(=O)c1cc(C#N)nc(C#Cc2ccc3c4c(oc3c2)C(C)(C)c2cc(NS(C)(=O)=O)ccc2C4=O)c1 | 67 | 
2.7 | 171 | 3.1 | 53 | CC1(C)c2cc(OCCN3CCOCC3)ccc2C(=O)c2c1oc1cc(C#Cc3cc(OCC4CCC4)ccn3)ccc21 | 210 | 
2.6 | > 1000 | 2.5 | 130 | CC(C)(C)NC(=O)c1cc(C#Cc2ccc3c4c(oc3c2)C(C)(C)c2cc(NS(C)(=O)=O)ccc2C4=O)nc(C(F)(F)F)c1 | 55 | 
2.4 | > 1000 | 2.8 | 145 | CC1(C)c2cc(NS(C)(=O)=O)ccc2C(=O)c2c1oc1cc(C#Cc3cc(C(=O)NC4CC4)ccn3)ccc21 | 83 | 
2.2 | 997 | 3.4 | 159 | CC1(C)c2cc(NS(C)(=O)=O)ccc2C(=O)c2c1oc1cc(C#Cc3cc(OCC(F)(F)F)ccn3)ccc21 | 67 | 
2.1 | 413 | 5.2 | 68 | CC1(C)c2cc(OCCN3CCNC(=O)C3)ccc2C(=O)c2c1oc1cc(C#Cc3cc(OCC4CC4)ccn3)ccc21 | 19 | 
2 | 490 | 6.4 | 220 | CC1(C)c2cc(OCCN3CCOCC3)ccc2C(=O)c2c1oc1cc(C#Cc3cc(OCCC4CC4)ccn3)ccc21 | 530 | 
1.4 | 290 | 4.2 | 50 | CC1(C)c2cc(N3CCNC(=O)C3)ccc2C(=O)c2c1oc1cc(C#Cc3cc(OCC4CC4)ccn3)ccc21 | 16 | 
0.7 | 600 | 4.7 | 130 | CC(C)(C)NC(=O)c1ccnc(C#Cc2ccc3c4c(oc3c2)C(C)(C)c2cc(NS(C)(=O)=O)ccc2C4=O)c1 | 14 | 
0.7 | > 1000 | 2.8 | 320 | CCc1cc(C(=O)NC(C)(C)C)cc(C#Cc2ccc3c4c(oc3c2)C(C)(C)c2cc(NS(C)(=O)=O)ccc2C4=O)n1 | 12 | 
